Consider one compound from patent US20240181049A1, “HARNESSING THE POWER OF MICROBIOTA AND METABOLITES FOR THE TREATMENT OF CANCER” (UTI LIMITED PARTNERSHIP, priority 2019, published 2024).

For one experiment, the system named is MC38 tumor cells. Description: MC38 tumor cell viability in vitro. The note with it: direct exposure in vitro, 72 hours. The format is cell-based. Here is the method:
FIG. 17A-17B. […] (a) MC38 tumor cells were treated with the indicated doses of inosine in vitro for 72 hours. Cell death and survival was assessed through flow cytometry. (b) MC38 tumor cells expressing full length ovalbumin (MC38-OVA) were treated with the indicated doses of inosine in vitro for 72 hours. In parallel, OVA-specific naïve CD4 and CD8 T cells from spleens of OT-II and OT-I mice, respectively, were activated with anti-CD3/anti-CD28 beads and rmIL-2 (20 IU/ml) for 72 hours. Inosine was then washed away from conditioned MC38-OVA cells and fresh medium together with activated T cells were added (100,000 MC38-OVA cells+25,000 CD4 cells+25,000 CD8 cells). 72 hours later, cell death and survival of MC38-OVA cells was assessed through flow cytometry. Grey and black dash-dotted lines indicate MC38-OVA cell viability and death when co-cultured with naïve OVA-specific CD4 and CD8 T cells. Data are mean±SEM and pooled from two individual experiments. n=6 biological replicates/condition. #, & P<0.05, **, P<0.01; (**=0.0001 vs 10 mM, #0.001 vs 10 mM and & 1 vs 10 mM)

Experiment [1] has as its system naïve OVA323-339-specific OT-II CD4^+ T cells. Nature of the experiment: BMDC / naive OT-II CD4+ T cell co-culture, Th1 differentiation. The format is cell-based, mice. The conditions noted are these: 2 mM inosine, 48 hours. The text has this: FIG. 4A-4K: Effect of inosine on T cell differentiation and dependency on classical dendritic cells of ICB therapy efficacy. (a) Scatter plot of untargeted metabolomics data in the serum of anti-CTLA-4 treated, tumor-bearing B.p. monocolonized compared to C.sp. monocolonized and germ-free (GF) mice. Grey circles or dotted grey circles depict inosine or inosine fragments/adducts, respectively. […] (c) Naïve CD4^+ T cells were co-cultured with bone marrow derived dendritic cells and IFN-γ. Quantification of T-bet^+CD3ε^+CD4^+ T cells 48 hours after co-culture in the presence or absence of inosine, A2A receptor inhibitor (ZM241385), cell permeable cAMP (db-cAMP) and protein kinase A inhibitor (RP-8-CPT-CAMPS). (d) Same as (c) without IFN-γ. (e) Representative plot and quantification (left and right panel) of phospho-CREB (Ser133) levels in naïve CD4^+ T cells cultured with anti-CD3/anti-CD28 coated beads for 1 hour in the presence or absence of inosine. (f) Schematic overview of experimental setup to deplete classical dendritic cells during MC38 tumor challenge and anti-CTLA-4 treatment. Intratumoral (g) frequency of CD8^+ T cells (h) IFN-γ^+CD8^+ T cells. (i and j) same as (g and h), but CD4^+ T cells and (k) tumor weight at […]. Data are mean±SEM and pooled from two individual experiments (a-b) n=5-8 samples/group (c-e) 10-15 biological replicates/group (f-k) 10 mice/group. *, P<0.05; **, P<0.01; ***, P<0.001; ****, P<0.0001
Bone marrow derived dendritic cells (BMDCs) were generated from flushed bone marrow cells, maintained in RPMI-1640 (Sigma) supplemented with 10% FBS, 50 μm 2-Mercaptoethanol (Sigma) 100 units/ml penicillin, 100 μg/ml streptomycin sulfate and 20 ng/ml rm GM-CSF (R&D). Medium was exchanged after 48 hours and 72 hours. 5 days after culture, a magnetic cell sorting step was performed to enrich for CD11c^+ cells (Miltenyi Biotec). CD11c^+ cells were seeded in 96 flat bottom wells and pulsed with 20 ng/ml OVA323-339 and 100 ng/ml LPS (both Sigma) for 18 hours. In some conditions BMDCs were also cultured with 10 ng/ml rmIFN-γ (R&D).
Negative selection magnetic cell sorting (Miltenyi Biotec) was used to enrich naïve OT-II CD4^+ T cells. Naïve OT-II CD4^+ T cells were then co-cultured with BMDCs at a ratio of 2:1 or stimulated with anti-CD3/anti-CD28 T cell activation beads (Thermofisher) at a ratio of 1:1 for 48 hours prior to restimulation with PMA/lonomycin in the presence of Brefeldin-A and analysis (see Single cell preparation and flow cytometry for details). In some conditions cells were additionally cultured with various combinations of 2 μg/ml anti-CTLA-4, 100 μM db-cAMP (Sigma), 5 μM ZM 241385 (Sigma), 300 μM Rp-8-CPT-CAMPS (Cayman Chemical) or 2 mM inosine (Sigma) as described previously (He et al., 2017; Yao et al., 2013).

The next experiment concerns MC38. Description: MC38 tumors in SPF mice, inosine or B. pseudolongum + anti-CTLA-4. The format is in vivo. The note with it: oral gavage. As for the experimental part:
FIG. 35A-35H. Inosine and live B. pseudolongum improve anti-CTLA-4 therapy efficacy in moderately diverse and complex microbiomes. A) Schematic overview of experimental setup to assess the effect of inosine on anti-tumor immunity in gnotobiotic mice (Oligo-MM12) stably colonized with 12 bacterial species. Upon palpable tumors, Oligo-MM12 colonized mice were treated with 100 μg anti-CTLA-4 i.p. or Isotype antibody (5 times every 72 hours). In addition, inosine (300 mg/KG/BW) or PBS was given daily orally through gavage. (B) Pictures of tumors and (C) tumor weight are shown at day 20. scale bars: 1 cm. (D) Quantification of intratumoral IFN-γ+ cells amongst CD8+ or CD4+ T cells are shown. (E) Schematic overview of experimental setup to assess the effect of inosine and B. pseudolongum on anti-tumor immunity in SPF mice. Following MC38 injection some mice received antibiotics (ABX), specifically Ampicillin 1 mg/ml, Colistin 1 mg/ml and Streptomycin 5 mg/ml for 7 days in the drinking water. Upon palpable tumors, antibiotics were removed and 100 μg anti-CTLA-4 (5 times every 72 hours) started. Mice concomitantly received either PBS, inosine (300 mg/KG/BW daily), B. pseudolongum or heat inactivated (H.i.) B. pseudolongum orally through gavage (5 times every 72 hours). […] (H) Quantification of intratumoral IFN-γ+ cells amongst CD8+ or CD4+ cells are shown. […]

Turning to `OC[C@H]1O[C@@H](n2cnc3c(O)ncnc32)[C@H](O)[C@@H]1O` [inosine], the tumor cell viability entry in the experiment on MC38 tumor cells is “did not exert any effects on tumor cell viability”; in the experiment on MC38 tumor cells (listed as Inosine) it was “does not directly impact tumor cell viability”. In addition, the Th1 induction result in experiment [1] (in the absence of IFN-γ) is given as “reduced Th1 induction”. The “Th1 differentiation of naïve T cells (T-bet+)” value in experiment [1] (in the presence of exogenous IFN-γ) is recorded as “strongly boosted Th1 differentiation of naïve T cells”. In addition, in the experiment on MC38, the “efficacy of anti-CTLA-4” value is recorded as “could promote the efficacy of anti-CTLA-4”.
